From patent publication US20220281825A1 (priority 2016, published 2022)

Legend:
[1] = test system: LASV-p; test: organism not typed; format: cell-based, Lassa (LASV); conditions: Vero, 24 h, read-out: LASV-p EC50 (nM)
[2] = test system: MACV-p; test: organism not typed; format: cell-based, Machupo (MACV); conditions: Vero, 24 h, read-out: MACV-p EC50 (nM)
[3] = test system: JUNV-p; test: organism not typed; format: cell-based, Junin (JUNV); conditions: Vero, 24 h, read-out: JUNV-p EC50 (nM)
[4] = test system: TCRV-p; test: organism not typed; format: cell-based; conditions: Vero, 24 h, read-out: TCRV-p EC50 (nM)
[5] = test system: VSV-p; test: microbe, parasite or virus in culture; format: cell-based; conditions: Vesicular stomatitis virus, Vero, 24 h, read-out: VSV-p EC50 (nM)
[6] = in vitro; conditions: African green monkey
[7] = test system: GTOV-p; test: organism not typed; format: cell-based, Guanarito (GTOV); conditions: Vero, 24 h, read-out: GTOV-p EC50 (nM)
[8] = molecular target: hERG channel (Homo sapiens, UniProt Q12809); conditions: pH 7.4
Chain of hERG channel (Q12809 whole entry): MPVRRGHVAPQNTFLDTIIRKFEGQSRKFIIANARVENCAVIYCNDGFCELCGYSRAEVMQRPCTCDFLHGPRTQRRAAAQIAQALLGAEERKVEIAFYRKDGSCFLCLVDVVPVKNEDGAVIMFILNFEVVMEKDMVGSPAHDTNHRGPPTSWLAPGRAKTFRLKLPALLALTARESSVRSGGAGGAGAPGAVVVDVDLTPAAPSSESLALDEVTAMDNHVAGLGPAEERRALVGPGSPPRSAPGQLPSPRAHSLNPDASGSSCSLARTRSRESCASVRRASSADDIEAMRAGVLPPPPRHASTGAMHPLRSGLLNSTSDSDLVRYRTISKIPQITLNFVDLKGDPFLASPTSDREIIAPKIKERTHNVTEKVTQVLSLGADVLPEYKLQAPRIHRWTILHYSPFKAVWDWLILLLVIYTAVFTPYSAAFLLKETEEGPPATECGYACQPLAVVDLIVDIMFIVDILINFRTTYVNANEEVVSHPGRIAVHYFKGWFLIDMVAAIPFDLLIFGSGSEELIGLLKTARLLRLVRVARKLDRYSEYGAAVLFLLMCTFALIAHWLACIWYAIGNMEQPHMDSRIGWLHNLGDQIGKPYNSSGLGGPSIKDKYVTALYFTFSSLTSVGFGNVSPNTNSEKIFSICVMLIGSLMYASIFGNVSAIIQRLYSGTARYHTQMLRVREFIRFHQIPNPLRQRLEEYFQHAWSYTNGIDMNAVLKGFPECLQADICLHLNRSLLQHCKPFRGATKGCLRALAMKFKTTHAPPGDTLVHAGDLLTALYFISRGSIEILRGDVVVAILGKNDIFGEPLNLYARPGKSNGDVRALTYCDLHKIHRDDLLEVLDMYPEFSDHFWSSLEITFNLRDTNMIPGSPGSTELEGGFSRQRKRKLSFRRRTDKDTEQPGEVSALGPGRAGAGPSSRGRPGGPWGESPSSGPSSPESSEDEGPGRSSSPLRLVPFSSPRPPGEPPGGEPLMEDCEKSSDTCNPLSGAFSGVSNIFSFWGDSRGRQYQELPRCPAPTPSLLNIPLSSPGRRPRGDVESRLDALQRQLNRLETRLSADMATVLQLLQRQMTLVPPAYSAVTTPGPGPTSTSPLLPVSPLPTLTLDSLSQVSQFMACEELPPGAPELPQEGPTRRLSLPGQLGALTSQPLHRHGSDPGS

SMILES | EC50 [1] [nM] | EC50 [2] [nM] | EC50 [3] [nM] | EC50 [4] [nM] | EC50 [5] [nM] | CC50 [6] [nM] | EC50 [7] [nM] | hERG % Inhibition [8] [%]
COc1ccc(-n2cnc3ccc(-c4ccc(N(C)C)cc4)cc32)cc1 [Example A7, 4-[1-(4-methoxyphenyl)-1H-1,3-benzodiazol-6-yl]-N,N-dimethylaniline] | 8.9 | 17 | 1.8 | > 25 | 980 | 3960 | – | –
COc1ccc(-n2cnc3ccc(-c4ccc(C(C)(C)O)cc4)cc32)cc1 [Example A8, 2-{4-[1-(4-methoxyphenyl)-1H-1,3-benzodiazol-6-yl]phenyl}propan-2-ol] | 6.4 | 22.3 | 3.98 | 21.7 | > 1000 | 9540 | – | –
COc1ccc(-n2cnc3ccc(-c4ccc5[nH]ccc5c4)cc32)cc1 [Example A12, 6-(1H-indol-5-yl)-1-(4-methoxyphenyl)-1H-1,3-benzodiazole] | 0.81 | > 25 | 19.3 | 21.4 | 800 | 200 | – | –
COc1ccc(-n2cnc3ccc(-c4ccc(N5CCOCC5)cc4)cc32)cc1 [Example A16, 1-(4-methoxyphenyl)-6-[4-(morpholin-4-yl)phenyl]-1H-1,3-benzodiazole] | 17.2 | > 25 | 15.3 | > 25 | > 1000 | > 100000 | – | –
CC(C)Oc1ccc(-n2cnc3ccc(-c4ccc(N(C)C)cc4)cc32)cc1 [Example A18, N,N-dimethyl-4-{1-[4-(propan-2-yloxy)phenyl]-1H-1,3-benzodiazol-6-yl}aniline] | 1.08 | 2.27 | 1.55 | 12.5 | > 1000 | 14000 | 0.07 | –
CC(=O)c1ccc(-c2ccc3ncn(-c4ccc(OC(C)C)cc4)c3c2)cc1 [Example A26, 1-(4-{1-[4-(propan-2-yloxy)phenyl]-1H-1,3-benzodiazol-6-yl}phenyl)ethan-1-one] | 0.59 | 0.7 | 0.81 | 1.45 | – | 7520 | 0.73 | –
CC(C)Oc1ccc(-n2cnc3ccc(-c4ccc(C(C)(C)O)cc4)nc32)cc1 [Example B1, 2-(4-{3-[4-(propan-2-yloxy)phenyl]-3H-imidazo[4,5-b]pyridin-5-yl}phenyl)propan-2-ol] | 1.61 | 7.09 | 4.95 | 28 | > 1000 | 12200 | 0.88 | –
CC(C)Oc1ccc(-c2ccc3ncn(-c4ccc(OC(C)C)cc4)c3n2)cc1 [Example B2, 3,5-bis[4-(propan-2-yloxy)phenyl]-3H-imidazo[4,5-b]pyridine] | – | – | – | – | – | – | – | <10
CC(C)Oc1ccc(-c2ccc3nnn(-c4ccc(OC(C)C)cc4)c3c2)cc1 [Example B12, 1,6-bis[4-(propan-2-yloxy)phenyl]-1H-1,2,3-benzotriazole] | – | – | – | – | – | – | – | 17
CC(C)Oc1ccc(-n2nnc3ccc(-c4ccc5[nH]ccc5c4)cc32)cc1 [Example B13, 6-(1H-indol-5-yl)-1-[4-(propan-2-yloxy)phenyl]-1H-1,2,3-benzotriazole] | 1.53 | 5.58 | 1.8 | 20.4 | 5360 | 6620 | 1.24 | –
CC(C)Oc1ccc(-c2cnc3ccc(-c4ccc(C5(O)CCC5)cc4)cn23)cc1 [Example C9, 1-(4-{3-[4-(propan-2-yloxy)phenyl]imidazo[1,2-a]pyridin-6-yl}phenyl)cyclobutan-1-ol] | 1.15 | 0.71 | 0.45 | 1.7 | 5810 | 3970 | 0.27 | –
CC(C)Oc1ccc(-c2cnc3ccc(-c4ccc5cc[nH]c5c4)cn23)cc1 [Example C11, 6-{3-[4-(propan-2-yloxy)phenyl]imidazo[1,2-a]pyridin-6-yl}-1H-indole] | 2.83 | 10 | 3.21 | 18.4 | 3090 | 25200 | 0.86 | –
CC(C)Oc1ccc(-c2cnc3ccc(-c4ccc5c(ccn5C)c4)cn23)cc1 [Example C22, 1-methyl-5-{3-[4-(propan-2-yloxy)phenyl]imidazo[1,2-a]pyridin-6-yl}-1H-indole] | 2.33 | 0.335 | 0.415 | 4.94 | – | 24400 | 0.45 | –
CC(C)Oc1ccc(-c2cnc3ccc(-c4ccc(OC(C)C)c(F)c4)cn23)cc1 [Example C24, 6-[3-fluoro-4-(propan-2-yloxy)phenyl]-3-[4-(propan-2-yloxy)phenyl]imidazo[1,2-a]pyridine] | 4.58 | 0.875 | 0.416 | 3.91 | 9810 | 4180 | 0.15 | –
CC(C)Oc1ccc(-c2cnc3ccc(-c4ccc(C5(O)CC5)cc4)cn23)cc1 [Example C27, 1-(4-{3-[4-(propan-2-yloxy)phenyl]imidazo[1,2-a]pyridin-6-yl}phenyl)cyclopropan-1-ol] | 0.66 | 0.68 | 0.51 | 0.58 | > 10000 | 5280 | 0.24 | –
CC(C)Oc1ccc(-c2ccc3ncc(-c4ccc(C5CC5)cc4)n3c2)cc1 [Example C30, 3-(4-cyclopropylphenyl)-6-[4-(propan-2-yloxy)phenyl]imidazo[1,2-a]pyridine] | 1.02 | 1.08 | 0.82 | 3.83 | 6960 | 3980 | 0.05 | –
CC(C)Oc1ccc(-c2ccc3ncc(-c4ccc(OCC5CC5)cc4)n3c2)cc1 [Example C33, 3-[4-(cyclopropylmethoxy)phenyl]-6-[4-(propan-2-yloxy)phenyl]imidazo[1,2a]pyridine] | 1.3 | 5.31 | 2.3 | 6.57 | 4770 | 4770 | 0.91 | –
CC(C)Oc1ccc(-c2ccc3ncc(-c4ccc(C(C)(C)O)cc4)n3c2)cc1 [Example C38, 2-(4-{6-[4-(propan-2-yloxy)phenyl]imidazo[1,2-a]pyridin-3-yl}phenyl)propan-2-ol] | 0.84 | – | – | 1.77 | – | – | 0.2 | –
CC(C)Oc1ccc(-c2ccc3ncc(-c4ccc(OC(F)F)cc4)n3c2)cc1 [Example C40, 3-[4-(difluoromethoxy)phenyl]-6-[4-(propan-2-yloxy)phenyl]imidazo[1,2a]pyridine] | 3.83 | 5.85 | 0.97 | 22.6 | 6170 | 4110 | 1.35 | –
c1cc(-c2ccc3ncc(-c4ccc(OC5CC5)cc4)n3c2)ccc1OC1CC1 [Example C46, 3,6-bis(4-cyclopropoxyphenyl)imidazo[1,2-a]pyridine] | 7.23 | 8.47 | 4.42 | 22.5 | 4550 | 4610 | 1.26 | –
OC1(c2ccc(-c3ccc4ncc(-c5ccc(C6(O)CCC6)cc5)n4c3)cc2)CCC1 [Example C47, 1-(4-{3-[4-(1-hydroxycyclobutyl)phenyl]imidazo[1,2-a]pyridin-6-yl}phenyl)cyclobutan-1-ol] | 1.8 | 0.5 | 0.55 | 1.17 | 4340 | 7860 | 0.44 | –
CC(C)Oc1ccc(-c2cnc3ncc(-c4ccc5[nH]ccc5c4)n3c2)cc1 [Example D16, 5-{6-[4-(propan-2-yloxy)phenyl]imidazo[1,2-a]pyrimidin-3-yl}-1H-indole] | 5.37 | 19.1 | 1.05 | 19.9 | – | 7530 | 3.52 | –
CC(C)Oc1ccc(-c2ccc3noc(-c4ccc(OC(C)C)cc4)c3c2)cc1 [Example D18, 3,5-bis[4-(propan-2-yloxy)phenyl]-2,1-benzoxazole] | > 25 | > 25 | 5.58 | > 25 | – | > 100000 | – | –
CC(C)Oc1ccc(-c2ccn3cnc(-c4ccc(OC(C)C)cc4)c3c2)cc1 [Example D19, 1,7-bis[4-(propan-2-yloxy)phenyl]imidazo[1,5-a]pyridine] | > 25 | > 25 | > 25 | > 25 | – | 7540 | – | –
CC(C)Oc1ccc(-c2ccc3nc(C(N)=O)c(-c4ccc(OC(C)C)cc4)n3c2)cc1 [Example D22, 3,6-bis[4-(propan-2-yloxy)phenyl]imidazo[1,2-a]pyridine-2-carboxamide] | > 25 | > 25 | > 25 | > 25 | – | 49500 | – | –
CC(C)Oc1ccc(-c2ccc3nc(C#N)c(-c4ccc(OC(C)C)cc4)n3c2)cc1 [Example D23, 3,6-bis[4-(propan-2-yloxy)phenyl]imidazo[1,2-a]pyridine-2-carbonitrile] | 27.4 | > 25 | 3.78 | > 25 | – | > 100000 | – | –
